The target in one experiment is PI3 K Alpha (Homo sapiens, UniProt P42336). The experiment is described as follows: PI3 kinase phosphorylation assays (homogenous solution phase, one step solid phase, ATP depletion/KinaseGlo). Type of experiment: biochemical. In general terms: In Kinase-Glo more light means more ATP remaining.
The subject of experiment [1] is pSer473-Akt in A2780 cells. Put plainly: pSer473 Akt assay to monitor PI3K pathway in A2780 cells (MSD). The settings on record: Homo sapiens. Type of experiment: cell-based. In outline: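 A2780 cells (15,000/well, adhered overnight) treated 1 h at 37 °C with compound, then lysed; pSer473-Akt and total Akt measured by MSD electrochemiluminescence. The pSer473/total Akt ratio gave percent inhibition versus DMSO, from which EC50 was derived.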

In a further experiment the test system is A2780 cells. Put plainly: Viability assay in A2780 (Cell Titer Glo). The class given is cell-based, human. The settings on record: Homo sapiens. The method, boiled down:
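A2780 cells (1,000/well, DMEM + 10% FBS) were exposed to 3-fold serial dilutions of compound for 72 hrs at 37° C, 5% CO2. Viable cells were read by Cell Titer Glo luminescence, in duplicate, and EC50 values were derived from the curves.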
On the technique in general: In ATP-based viability assays light output follows the ATP content of the culture.

[2] abbreviates: A2780 cells, read-out: A2780 pAKT 473 EC50.
Setting [3] is: A2780 cells, read-out: A2780 Cell prolif. EC50.
Where [4] appears, read: A2780, read-out: A2780 pAKT 473 EC50.
The mark [5] stands for this setting: A2780, read-out: A2780 Cell prolif. EC50.
Where [6] appears, read: ATP depletion assay, read-out: PI3 K Alpha IC50.
[7] abbreviates: 1 h, A2780 cells, one hour incubation, read-out: A2780 pAKT473 EC50.
The mark [8] stands for this setting: A2780 cells, 72 hrs, read-out: A2780 Cell prolif. EC50.

Drawing on patent US20100075965A1, “PI3 KINASE INHIBITORS AND METHODS OF THEIR USE” (Novartis AG, priority 2006, published 2010), this text covers IC50 and EC50 for 26 compounds.

What is called pIC50 is the negative decadic logarithm of the IC50, by convention in mol/L. In general, pEC50 refers to the negative decadic logarithm of the EC50, by convention in mol/L.

Each structure is given as a SMILES string. pEC50, pIC50: −log10 of the molar value. Where two headings read alike, the source gives them in different places.

PI3 K Alpha, sequence (P42336 whole entry): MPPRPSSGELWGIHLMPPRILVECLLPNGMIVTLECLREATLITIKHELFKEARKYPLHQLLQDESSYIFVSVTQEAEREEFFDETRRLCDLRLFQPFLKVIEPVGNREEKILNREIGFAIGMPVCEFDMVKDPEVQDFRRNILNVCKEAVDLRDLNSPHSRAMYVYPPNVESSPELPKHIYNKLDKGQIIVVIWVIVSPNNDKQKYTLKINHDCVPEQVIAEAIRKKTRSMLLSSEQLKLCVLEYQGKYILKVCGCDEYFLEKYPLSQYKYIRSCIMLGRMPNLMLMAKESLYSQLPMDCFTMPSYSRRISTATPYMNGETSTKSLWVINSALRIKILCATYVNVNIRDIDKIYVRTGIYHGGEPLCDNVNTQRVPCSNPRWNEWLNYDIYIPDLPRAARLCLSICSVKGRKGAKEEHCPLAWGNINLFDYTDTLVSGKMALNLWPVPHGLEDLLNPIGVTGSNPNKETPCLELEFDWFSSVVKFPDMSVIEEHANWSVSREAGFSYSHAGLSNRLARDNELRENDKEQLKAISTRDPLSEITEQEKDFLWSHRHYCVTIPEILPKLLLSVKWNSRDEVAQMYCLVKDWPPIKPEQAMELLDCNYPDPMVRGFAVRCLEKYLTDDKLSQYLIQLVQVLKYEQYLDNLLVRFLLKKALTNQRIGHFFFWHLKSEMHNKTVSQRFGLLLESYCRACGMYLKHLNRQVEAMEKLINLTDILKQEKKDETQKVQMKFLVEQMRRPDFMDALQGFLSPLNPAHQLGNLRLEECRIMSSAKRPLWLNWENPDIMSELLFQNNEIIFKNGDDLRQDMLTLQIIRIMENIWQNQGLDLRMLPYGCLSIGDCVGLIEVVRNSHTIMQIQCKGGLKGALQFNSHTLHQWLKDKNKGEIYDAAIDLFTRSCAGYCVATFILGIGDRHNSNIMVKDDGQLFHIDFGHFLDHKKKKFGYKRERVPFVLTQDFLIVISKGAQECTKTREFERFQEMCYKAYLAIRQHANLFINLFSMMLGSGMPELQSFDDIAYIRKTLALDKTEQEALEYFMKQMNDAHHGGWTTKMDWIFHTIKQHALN
PI3 K Alpha, sequence (P27986 whole entry partner): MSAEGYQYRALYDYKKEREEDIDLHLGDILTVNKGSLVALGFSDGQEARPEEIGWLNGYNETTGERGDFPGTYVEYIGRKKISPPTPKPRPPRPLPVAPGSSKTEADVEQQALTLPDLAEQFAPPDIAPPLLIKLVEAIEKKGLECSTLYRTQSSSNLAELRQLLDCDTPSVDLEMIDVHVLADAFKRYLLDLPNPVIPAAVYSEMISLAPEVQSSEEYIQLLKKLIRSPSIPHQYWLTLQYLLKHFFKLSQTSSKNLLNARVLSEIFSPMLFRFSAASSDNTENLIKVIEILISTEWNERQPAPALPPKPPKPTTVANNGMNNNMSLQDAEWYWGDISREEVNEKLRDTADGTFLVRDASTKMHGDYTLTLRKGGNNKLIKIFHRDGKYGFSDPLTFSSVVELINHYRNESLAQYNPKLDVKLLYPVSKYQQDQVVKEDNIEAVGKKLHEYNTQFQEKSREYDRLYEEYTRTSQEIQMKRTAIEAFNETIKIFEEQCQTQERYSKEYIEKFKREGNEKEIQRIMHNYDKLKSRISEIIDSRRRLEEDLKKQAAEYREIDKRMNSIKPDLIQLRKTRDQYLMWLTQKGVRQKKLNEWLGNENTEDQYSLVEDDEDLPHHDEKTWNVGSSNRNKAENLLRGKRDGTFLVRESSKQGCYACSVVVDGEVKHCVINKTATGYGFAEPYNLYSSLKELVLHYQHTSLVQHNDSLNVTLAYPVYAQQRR

For `CCOc1nc(-c2ccc3nc(NC(C)=O)cn3n2)cnc1N` [Example 184, N-(6-(5-amino-6-ethoxypyrazin-2-yl)imidazo[1,2-b]pyridazin-2-yl)acetamide], the pIC50 at PI3 K Alpha (read-out: PI3K Alpha IC50) was > 6.00. Further, the negative-log EC50 (pEC50) is > 6.00 in experiment [1] (setting [2]) and > 5.00 with A2780 cells (setting [3]).
Take `CNC(=O)c1ccc(-c2c(NC(C)=O)nc3ccc(-c4cnc(N)c(C(F)(F)F)c4)cn23)cc1` [Example 18, 4-[2-Acetylamino-6-(6-amino-5-trifluoromethyl-pyridin-3-yl)-imidazo[1,2-a]pyridin-3-yl]-N-methyl-benzamide]: the pIC50 on PI3 K Alpha (read-out: PI3K Alpha IC50) is > 6.00. Besides, the pEC50 was > 5.00 in experiment [1] (setting [2]) and > 4.60 in the experiment with A2780 cells (setting [3]).
Consider `CC(=O)Nc1nc2ccc(-c3cnc(N)c(C(F)(F)F)c3)cn2c1C#Cc1ccccn1` [Example 241, N-(6-(6-amino-5-(trifluoromethyl)pyridin-3-yl)-3-(pyridin-2-ylethnyl)imi-dazo[1,2-a]pyridin-2-yl)acetamide], for which the pIC50 against PI3 K Alpha is > 6.00. For the same compound, the negative-log EC50 (pEC50) (in experiment [1] (setting [4]); in the experiment on A2780 cells (setting [5])) was > 5.00 in each case.
`CC(=O)Nc1cn2cc(-c3cnc(N)c(Oc4ccccc4)n3)ccc2n1` [Example 75, N-(6-(5-amino-6-phenoxypyrazin-2-yl)imidazo[1,2-a]pyridin-2-yl)acetamide]: the pIC50 at PI3 K Alpha (read-out: PI3K Alpha IC50) was > 6.00. The pEC50 (in experiment [1] (setting [2]); in the experiment on A2780 cells (setting [3])) was > 6.00 each time.
Regarding `CC(=O)Nc1nc2ccc(-c3cnc(N)c(CN(C)C)c3)cc2s1` [Example 2-25, N-[6-(6-Amino-5-dimethylamino-methyl-pyridin-3-yl)-benzothiazol-2-yl]-acetamide], the negative-log IC50 (pIC50) on PI3 K Alpha (setting [6]) is > 6.00. The pEC50 in experiment [1] (setting [7]) was > 6.00; with A2780 cells (setting [8]), > 5.00.
Regarding `CC(=O)Nc1cn2cc(-c3cnc(N)c(F)c3)ccc2n1` [Example 28, N-[6-(6-Amino-5-fluoro-pyridin-3-yl)-imidazo[1,2-a]pyridin-2-yl]-acetamide], the negative-log IC50 (pIC50) on PI3 K Alpha (read-out: PI3K Alpha IC50) was > 6.00. Further, the pEC50 in experiment [1] (setting [2]) was > 6.00; in the experiment with A2780 cells (setting [3]), > 4.60.
`CC(=O)Nc1nc2ccc(-c3cnc(N)c(F)c3)cc2s1` [Example 2-6, N-[6-(6-Amino-5-fluoro-pyridin-3-yl)-benzothiazol-2-yl]-acetamide]: the pIC50 at PI3 K Alpha (setting [6]) is > 6.00. The values for the pEC50 (in experiment [1] (setting [7]); with A2780 cells (setting [8])) were > 6.00 and > 5.00, respectively.
Consider `CC(=O)Nc1nc2ccc(-c3cnc(N)c(C(F)(F)F)c3)cn2c1C#Cc1ccncc1` [Example 68, N-(6-(6-amino-5-(trifluoromethyl)pyridin-3-4-ylethynyl)imi-dazo[1,2-a]pyridin-2-yl)acetamide], for which the negative logarithm of the IC50 (pIC50) against PI3 K Alpha was > 6.00. For the same compound, the pEC50 (in experiment [1] (setting [4]); in the experiment with A2780 cells (setting [5])) was > 6.00 each time.
On to `Nc1ncc(-c2ccc3nc(NC(=O)CCCN4CCOCC4)cn3n2)cc1C(F)(F)F` [Example 108, N-(6-(6-amino-5-(trifluoromethyl)pyridin-3-yl)imidazo[1,2-b]pyridazin-2-yl)-4-morpholino-butanamide], for which the pIC50 on PI3 K Alpha (read-out: PI3K Alpha IC50) is > 6.00. Besides, the negative logarithm of the EC50 (pEC50) (in experiment [1] (setting [2]); in the experiment on A2780 cells (setting [3])) was > 6.00 each time.
As for `CC(=O)Nc1nc2ccc(-c3cnc(N)c(C(F)(F)F)c3)c(C)c2s1` [Example 2-27, N-[6-(6-Amino-5-trifluoromethyl-pyridin-3-yl)-7-methyl-benzothiazol-2-yl]-acetamide], on PI3 K Alpha (setting [6]), the pIC50 is > 6.00. For the same compound, the pEC50 in experiment [1] (setting [7]) is > 6.00; in the experiment on A2780 cells (setting [8]), > 5.00.
Take `CC(=O)Nc1nc2ccc(-c3cnc(N)c(C(F)(F)F)c3)cn2c1C#Cc1cccnc1` [Example 83, N-(6-(6-amino-5-(trifluoromethyl)pyridin-3-yl)-3-(pyridin-3-ylethynyl)imi-dazo[1,2-a]pyridin-2-yl)acetamide]: the pIC50 against PI3 K Alpha is > 6.00. In addition, the pEC50 (in experiment [1] (setting [4]); with A2780 cells (setting [5])) was > 6.00 each time.
`CC(=O)Nc1nc2ccc(-c3cnc(N)c(C(F)(F)F)c3)cn2c1C#N` [Example 32, N-[6-(6-Amino-5-trifluoromethyl-pyridin-3-yl)-3-cyano-imidazo[1,2-a]pyridin-2-yl]-acetamide]: the pIC50 at PI3 K Alpha (read-out: PI3K Alpha IC50) was > 6.00. Further, the pEC50 (in experiment [1] (setting [2]); in the experiment with A2780 cells (setting [3])) was > 6.00 throughout.
With `Nc1ncc(-c2ccc3nc(NC(=O)CN4CCCCC4)cn3n2)cc1C(F)(F)F` [Example 133, N-(6-(6-amino-5-(trifluoromethyl)pyridin-3-yl)imidazo[1,2-b]pyridazin-2-yl)-2-(piperidin-1-yl)acetamide], at PI3 K Alpha (read-out: PI3K Alpha IC50), the negative-log IC50 (pIC50) was > 6.00. Also, the pEC50 in experiment [1] (setting [2]) was > 6.00; in the experiment with A2780 cells (setting [3]), > 5.00.
`Nc1ncc(-c2ccc3nc(NC(=O)CCCN4CCOCC4)cn3c2)cc1C(F)(F)F` [Example 26, N-[6-(6-Amino-5-trifluoromethyl-pyridin-3-yl)-imidazo[1,2-a]pyridin-2-yl]-4-morpholin-4-yl-butyramide]: the pIC50 on PI3 K Alpha (read-out: PI3K Alpha IC50) was > 6.00. For the same compound, the pEC50 in experiment [1] (setting [2]) is > 6.00; with A2780 cells (setting [3]), > 5.00.
`Nc1ncc(-c2ccc3nc(NC(=O)c4ccc(-n5ccnc5)cc4)cn3c2)cc1C(F)(F)F` [Example 187, N-(6-(6-amino-5-(trifluoromethyl)pyridin-3-yl)imidazo[1,2-a]pyridin-2-yl)-4-(1H-imidazol-1-yl)benzamide]: on PI3 K Alpha (read-out: PI3K Alpha IC50), the pIC50 was > 6.00. Further, the pEC50 is > 6.00 in experiment [1] (setting [2]) and > 5.00 in the experiment with A2780 cells (setting [3]).
`CNCC(=O)Nc1cn2nc(-c3cnc(N)c(C(F)(F)F)c3)ccc2n1` [Example 60, N-(6-(6-amino-5-(trifluoromethyl)pyridin-3-yl)imidazo[1,2-b]pyridazin-2-yl)-2-(methylamino) acetamide]: at PI3 K Alpha (read-out: PI3K Alpha IC50), the pIC50 was > 6.00. For the same compound, the pEC50 (in experiment [1] (setting [2]); with A2780 cells (setting [3])) was > 6.00 each time.
Take `CC(=O)Nc1cn2cc(-c3cnc(N)c(-c4cccc(OC(F)(F)F)c4)c3)ccc2n1` [Example 92, N-(6-(6-amino-5-(3-(trifluoromethoxy)phenyl)pyridin-3-yl)imidazo[1,2-a]pyridin-2-yl)acetamide]: at PI3 K Alpha (read-out: PI3K Alpha IC50), the pIC50 is > 6.00. Moreover, the pEC50 was > 5.00 in experiment [1] (setting [2]) and > 6.00 in the experiment on A2780 cells (setting [3]).
Regarding `Nc1ncc(-c2ccc3nc(NC(=O)c4cccnc4)cn3c2)cc1C(F)(F)F` [Example 123, N-(6-(6-amino-5-(trifluoromethyl)pyridin-3-yl)imidazo[1,2-a]pyridin-2-yl)nicotinamide], the pIC50 at PI3 K Alpha (read-out: PI3K Alpha IC50) is > 6.00. Moreover, the pEC50 in experiment [1] (setting [2]) is > 6.00; in the experiment on A2780 cells (setting [3]), > 5.00.
Regarding `CCN(CC)CC#Cc1c(NC(C)=O)nc2ccc(-c3cnc(N)c(C(F)(F)F)c3)cn12` [Example 30, N-[6-(6-Amino-5-trifluoromethyl-pyridin-3-yl)-3-(3-diethylamino-prop-1-ynyl)-imidazo[1,2-a]pyridin-2-yl]-acetamide], the pIC50 on PI3 K Alpha (read-out: PI3K Alpha IC50) is > 6.00. Moreover, the pEC50 was > 6.00 in experiment [1] (setting [2]) and > 5.00 in the experiment on A2780 cells (setting [3]).
Consider `NCC(=O)Nc1cn2nc(-c3cnc(N)c(C(F)(F)F)c3)ccc2n1` [Example 77, 2-amino-N-(6-(6-amino-5-(trifluoromethyl)pyridin-3-yl)imidazo[1,2-b]pyridazin-2-yl)acetamide], for which the pIC50 at PI3 K Alpha (read-out: PI3K Alpha IC50) is > 6.00. Also, the pEC50 (in experiment [1] (setting [2]); in the experiment on A2780 cells (setting [3])) was > 6.00 in each case.
For `CCOCC(=O)Nc1cn2nc(-c3cnc(N)c(C(F)(F)F)c3)ccc2n1` [Example 118, N-(6-(6-amino-5-(trifluoromethyl)pyridin-3-yl)imidazo[1,2-b]pyridazin-2-yl)-2-ethoxyacetamide], at PI3 K Alpha (read-out: PI3K Alpha IC50), the pIC50 was > 6.00. In addition, the pEC50 was > 6.00 in experiment [1] (setting [2]) and > 5.00 in the experiment on A2780 cells (setting [3]).
On to `CC(=O)Nc1cn2cc(-c3cnc(N)cc3F)ccc2n1` [Example 29, N-[6-(6-Amino-4-fluoro-pyridin-3-yl)-imidazo[1,2-a]pyridin-2-yl]-acetamide], for which, at PI3 K Alpha (read-out: PI3K Alpha IC50), the negative logarithm of the IC50 (pIC50) is > 6.00. Besides, the values for the pEC50 (in experiment [1] (setting [2]); in the experiment with A2780 cells (setting [3])) were > 5.00 and > 4.60, respectively.
The matching figures for `CC(=O)Nc1nc2ccc(-c3cnc(N)c(C(F)(F)F)c3)cn2c1-c1ccc(C(N)=O)cc1` [Example 13, 4-[2-Acetylamino-6-(6-amino-5-trifluoromethyl-pyridin-3-yl)-imidazo[1,2-a]pyridin-3-yl]-benzamide]: > 6.00, > 4.60 and > 4.60.
Consider `Nc1ccc(-c2ccc3nc(NC(=O)CN4CCOCC4)sc3c2)cn1` [Example 2-16, N-[6-(6-Amino-pyridin-3-yl)-benzothiazol-2-yl]-2-morpholin-4-yl-acetamide], for which the pIC50 at PI3 K Alpha (setting [6]) was > 6.00. Moreover, the figures for the negative logarithm of the EC50 (pEC50) (in experiment [1] (setting [7]); with A2780 cells (setting [8])) were > 6.00 and > 4.60, respectively.
In the case of `CC(=O)Nc1cn2nc(-c3cnc(N)c(-c4ccccc4Oc4ccccc4)c3)ccc2n1` [Example 115, N-(6-(6-amino-5-(2-phenoxyphenyl)pyridin-3-yl)imidazo[1,2-b]pyridazin-2-yl)acetamide], the pIC50 on PI3 K Alpha (read-out: PI3K Alpha IC50) is > 6.00. For the same compound, the pEC50 was > 6.00 in experiment [1] (setting [2]) and > 5.00 in the experiment on A2780 cells (setting [3]).
Consider `CNCC(=O)Nc1cn2cc(-c3cnc(N)c(OCCOC)n3)ccc2n1` [Example 122, N-(6-(5-amino-6-(2-methoxyethoxy)pyrazin-2-yl)imidazo[1,2-a]pyridin-2-yl)-2-(methylamino) acetamide], for which the pIC50 on PI3 K Alpha (read-out: PI3K Alpha IC50) was > 6.00. For the same compound, the figures for the pEC50 (in experiment [1] (setting [2]); in the experiment with A2780 cells (setting [3])) were > 6.00 and > 5.00, respectively.
